From patent US20080069899A1, “Pharmaceutical Compositions Comprising Beta-Carboline Derivatives and Use Thereof for the Treatment of Cancer” (priority 2004, published 2008)
Several values for one entry are separate records, joined by “and”; a condition that tells them apart may be missing. Equal entries are not always repeated. Structures can show the parent of a compound that is named as a salt. Where two headings read alike, the source gives them in different places.

Key:
[1] = tested on: HT29 human colon tumor cells; test: in vivo antineoplastic activity, NOD-SCID mice xenografted with HT29 human tumour cells
Protocol: (§1) The animal model chosen is that of severe combined immunodeficient (NOD-SCID) mice having received a xenograft of human tumor cells.
(§2) Male and female NOD-SCID mice, more than 3 months old, were raised in an environment of strict sterility, in an insulator ventilated with filtered air and sterilized, at 22° C. and 40% humidity, with a day-12 h/night-12 h cycle. The cages, feeding bottles and the water were sterilized in an autoclave at 120° C. for 30 minutes and the food as well as the bedding were treated with γ-irradiation. All handling took place in aseptic conditions under a laminar flow hood.
The mice were subjected to general anaesthesia by i.p. injection of 0.3 to 0.4 ml of hypnomidate at 2 mg/ml. 1×10^7 HT29 human colon tumor cells in suspension in 200 μl of PBS were then injected sub-cutaneously, into the backs of the mice. […]
50 mg of 5-fluorouracil (Sigma) were dissolved in 8 ml of water and the solution obtained was sterilized by filtration on a membrane with 0.22 μm porosity. […]

[2] = Protocol: as §1, §2
150 mg of cyclophosphamide (Sigma) were dissolved in 8 ml of water and the solution obtained was sterilized by filtration on a membrane with 0.22 μm porosity.
50 mg of 5-fluorouracil (Sigma) were dissolved in 8 ml of water and the solution obtained was sterilized by filtration on a membrane with 0.22 μm porosity.
100 mg of dihydrated harmalacidine hydrochloride were dissolved in 8 ml of water and the solution obtained was sterilized by filtration on a membrane with 0.22 μm porosity. The mice received either 25, 50, or 100 mg/kg/day of harmalacidine alone, or a mixture of 25 or 50 mg/kg/day of harmalacidine+50 mg/kg/day of cyclophosphamide.

[3] = tested on: HBMEC (immortalized human bone marrow endothelial cell lines); test: in vitro cytotoxicity test (neutral red, 96-well microplate); assay type: cell-based; settings: 96 h, incubation 4 days
Protocol: (§3) The cytotoxic effects of the different alkaloid extracts of P. harmala were studied on several cell lines: • human leukemia cell lines: K562 and Jurkat (leukemia), U937 (myeloma), • human solid tumor cell lines: KB (epithelioma of the nasopharynx) and HT29 (colon), • immortalized human bone marrow endothelial cell lines: HBMEC.
(§4) The cells are cultured in an oven under a 5% CO2 atmosphere and at 37° C., in RPMI 1640 medium for K562, Jurkat, U937 and HT29 and DMEM for KB, supplemented with 10% foetal calf serum, 0.01% penicillin-streptomycin and L-glutamine 2 mM and in EGM2 medium for the HBMEC cells.
(§5) The cytotoxicity test is carried out in a 96-well microplate in the presence of the extract to be tested at varying concentrations of 40, 20, 10, 5, 1, 0.5 μg/ml and in the absence of product, after incubation for 4 days at 37° C. On the 3rd day, a solution of neutral red is added which is absorbed by living cells. The optical density (OD) of dye released by lyzed cells is measured at 540 nm by an Elisa plate reader. The toxicity (% inhibition of growth) is inversely proportional to the optical density.
(§6) The percentage of inhibition is defined as being the difference between the OD without product and the OD in the presence of product compared to the OD without product.
(§7) The concentration inhibiting 50% of cell growth is obtained from the curve representing the percentage of inhibition as a function of the logarithm of the concentration.

[4] = tested on: KB (epithelioma of the nasopharynx); test: as above; assay type: cell-based; settings: Homo sapiens, 96 h, incubation 4 days
Protocol: as §3, §4, §5, §6, §7

K562 (leukemia) = test: as above; assay type: cell-based; settings: Homo sapiens, incubation 4 days
Protocol: as §3, §4, §5, §6, §7

Jurkat (leukemia) = test: as above; assay type: cell-based; settings: Homo sapiens, 96 h, incubation 4 days
Protocol: as §3, §4, §5, §6, §7

U937 (myeloma) = test: as above; assay type: cell-based; settings: Homo sapiens, U-937, 96 h, incubation 4 days
Protocol: as §3, §4, §5, §6, §7

[5] = tested on: malignant and endothelial cells tested; test: summary of in vitro cytotoxicity over all lines tested; assay type: cell-based, human; settings: range over the cell lines, read-out: IC50 vis-à-vis malignant and endothelial cells tested
Protocol: as §3, §4, §5, §6, §7
To summarize, the IC50 vis-à-vis malignant and endothelial cells tested is the following: […]

Molecule: O=c1[nH]cc(F)c(=O)[nH]1 [5-fluorouracil]
- Average volume of the tumours of the treated mice compared to the average volume of the tumours of the non-treated mice (T/C) (%) ([1]; 5-fluorouracil 3 mg/kg/day alone per os, Day 15): 43%
- Average volume of the tumours of the treated mice compared to the average volume of the tumours of the non-treated mice (T/C) (%) ([1]; 5-fluorouracil 3 mg/kg/day alone per os, Day 30): 56%
- Average volume of the tumours of the treated mice compared to the average volume of the tumours of the non-treated mice (T/C) (%) ([1]; 5-fluorouracil 3 mg/kg/day alone per os, Day 40): 66%
- Average volume of the tumours of the treated mice compared to the average volume of the tumours of the non-treated mice (T/C) (%) ([1]; 5-fluorouracil 3 mg/kg/day alone per os, Day 50): 61%
- Average volume of the tumours of the treated mice compared to the average volume of the tumours of the non-treated mice (T/C) (%) ([1]; 5-fluorouracil 3 mg/kg/day alone per os, Day 60): 86%
- Average volume of the tumours of the treated mice compared to the average volume of the tumours of the non-treated mice (T/C) (%) ([1]; 5-fluorouracil 6 mg/kg/day alone per os, Day 15): 37%
- Average volume of the tumours of the treated mice compared to the average volume of the tumours of the non-treated mice (T/C) (%) ([1]; 5-fluorouracil 6 mg/kg/day alone per os, Day 30): 53%
- Average volume of the tumours of the treated mice compared to the average volume of the tumours of the non-treated mice (T/C) (%) ([1]; 5-fluorouracil 6 mg/kg/day alone per os, Day 40): 60%
- Average volume of the tumours of the treated mice compared to the average volume of the tumours of the non-treated mice (T/C) (%) ([1]; 5-fluorouracil 6 mg/kg/day alone per os, Day 50): 64%
- Average volume of the tumours of the treated mice compared to the average volume of the tumours of the non-treated mice (T/C) (%) ([1]; 5-fluorouracil 6 mg/kg/day alone per os, Day 60): 70%
- Average volume of the tumours of the treated mice compared to the average volume of the tumours of the non-treated mice (T/C) (%) ([1]; 5-fluorouracil 9 mg/kg/day alone per os, Day 15): 41%
- Average volume of the tumours of the treated mice compared to the average volume of the tumours of the non-treated mice (T/C) (%) ([1]; 5-fluorouracil 9 mg/kg/day alone per os, Day 30): 41%
- Average volume of the tumours of the treated mice compared to the average volume of the tumours of the non-treated mice (T/C) (%) ([1]; 5-fluorouracil 9 mg/kg/day alone per os, Day 40): 59%
- Average volume of the tumours of the treated mice compared to the average volume of the tumours of the non-treated mice (T/C) (%) ([1]; 5-fluorouracil 9 mg/kg/day alone per os, Day 50): 52%
- Average volume of the tumours of the treated mice compared to the average volume of the tumours of the non-treated mice (T/C) (%) ([1]; 5-fluorouracil 9 mg/kg/day alone per os, Day 60): 59%
- Average volume of the tumours of the treated mice compared to the average volume of the tumours of the non-treated mice (T/C) (%) ([1]; 5-fluorouracil 12 mg/kg/day alone per os, Day 15): 73%
- Average volume of the tumours of the treated mice compared to the average volume of the tumours of the non-treated mice (T/C) (%) ([1]; 5-fluorouracil 12 mg/kg/day alone per os, Day 30): 66%
- Average volume of the tumours of the treated mice compared to the average volume of the tumours of the non-treated mice (T/C) (%) ([1]; 5-fluorouracil 12 mg/kg/day alone per os, Day 40): 54%
- Average volume of the tumours of the treated mice compared to the average volume of the tumours of the non-treated mice (T/C) (%) ([1]; 5-fluorouracil 12 mg/kg/day alone per os, Day 50): 47%
- Average volume of the tumours of the treated mice compared to the average volume of the tumours of the non-treated mice (T/C) (%) ([1]; 5-fluorouracil 12 mg/kg/day alone per os, Day 60): 59%
- T/C ([1]; 5-fluorouracil 24 mg/kg/d, alternating 6 days of treatment and 6 days of rest, until the 20th day of the treatment): 17%
- Average volume of the tumours of the treated mice compared to the average volume of the tumours of the non-treated mice (T/C) (%) ([1]; 5-fluorouracil 24 mg/kg/day alone, alternating 6 days of treatment and 6 days of rest, Day 15): 17%
- Average volume of the tumours of the treated mice compared to the average volume of the tumours of the non-treated mice (T/C) (%) ([1]; 5-fluorouracil 24 mg/kg/day alone, alternating 6 days of treatment and 6 days of rest, Day 30): 54%
- Average volume of the tumours of the treated mice compared to the average volume of the tumours of the non-treated mice (T/C) (%) ([1]; 5-fluorouracil 24 mg/kg/day alone, alternating 6 days of treatment and 6 days of rest, Day 40): 54%
- day of administration at which the dose becomes lethal ([2]; both, NOD-SCID, mouse, in vivo): 35 to 45 days

Molecule: CC[C@@]1(O)C(=O)OCc2c1cc1n(c2=O)Cc2cc3ccccc3nc2-1 [Camptothecin, reference compound]
- IC50 [3]: 0.025 µg/mL and 70 nM
- IC50 [4]: 0.035 µg/mL and 100 nM
- IC50 (K562 (leukemia); 96 h): 0.014 µg/mL and 40 nM
- IC50 (Jurkat (leukemia)): 0.003 µg/mL and 90 nM
- IC50 (U937 (myeloma)): 0.023 µg/mL and 70 nM

Molecule: O=C1NCCc2c1[nH]c1cc(O)ccc21 [Demethyl-harmalacidine (D), demethyl harmalacidine]
- IC50 [3]: 17 µg/mL and 84.1 µM
- IC50 [4]: 10 µg/mL and 49.5 µM
- IC50 (K562 (leukemia); K562, 96 h): 20 µg/mL and 99 µM
- IC50 (Jurkat (leukemia)): 8.5 µg/mL and 42 µM

Molecule: COc1ccc2c(c1)[nH]c1c(C)nccc12 [Harmine•HCl•2H2O, dihydrated harmine hydrochloride]
- IC50 ([5]; hydrochloride): 10.5 to 35 µM

Molecule: OC1CCN2Cc3ccccc3N=C12 (centres unmarked) [Peganine (B), Peganine]
- IC50 [4]: > 50 µg/mL and > 266 µM
- IC50 (K562 (leukemia); K562, 96 h): 35 µg/mL and 186 µM
- IC50 (Jurkat (leukemia)): 75 µg/mL and 399 µM

Molecule: O=P1(N(CCCl)CCCl)NCCCO1 (centres unmarked) [cyclophosphamide]
- Average volume of the tumours of the treated mice compared to the average volume of the tumours of the non-treated mice (T/C) (%) ([1]; cyclophosphamide 50 mg/kg/day alone, Day 15): 63%
- Average volume of the tumours of the treated mice compared to the average volume of the tumours of the non-treated mice (T/C) (%) ([1]; cyclophosphamide 50 mg/kg/day alone, Day 30): 42%
- Average volume of the tumours of the treated mice compared to the average volume of the tumours of the non-treated mice (T/C) (%) ([1]; cyclophosphamide 50 mg/kg/day alone, Day 40): 37%
- Average volume of the tumours of the treated mice compared to the average volume of the tumours of the non-treated mice (T/C) (%) ([1]; cyclophosphamide 50 mg/kg/day alone, Day 50): 36%
- Average volume of the tumours of the treated mice compared to the average volume of the tumours of the non-treated mice (T/C) (%) ([1]; cyclophosphamide 50 mg/kg/day alone, Day 60): 32%
- Average volume of the tumours of the treated mice compared to the average volume of the tumours of the non-treated mice (T/C) (%) ([1]; cyclophosphamide 100 mg/kg/day alone, Day 15): 47%
- Average volume of the tumours of the treated mice compared to the average volume of the tumours of the non-treated mice (T/C) (%) ([1]; cyclophosphamide 100 mg/kg/day alone, Day 30): 25%
- Average volume of the tumours of the treated mice compared to the average volume of the tumours of the non-treated mice (T/C) (%) ([1]; cyclophosphamide 100 mg/kg/day alone, Day 40): 18%
- Average volume of the tumours of the treated mice compared to the average volume of the tumours of the non-treated mice (T/C) (%) ([1]; cyclophosphamide 100 mg/kg/day alone, Day 50): 14%
- Average volume of the tumours of the treated mice compared to the average volume of the tumours of the non-treated mice (T/C) (%) ([1]; cyclophosphamide 100 mg/kg/day alone, Day 60): 15%
- Average volume of the tumours of the treated mice compared to the average volume of the tumours of the non-treated mice (T/C) (%) ([1]; cyclophosphamide 150 mg/kg/day alone, Day 15): 4%
- tolerance of the dose ([2]; cyclophosphamide 150 mg/kg/day alone, all died around the 15th day of treatment): did not tolerate

Molecule: CC[C@]1(O)C[C@@H]2CN(CCc3c([nH]c4ccccc34)[C@@](C(=O)OC)(c3cc4c(cc3OC)N(C)[C@H]3[C@@](O)(C(=O)OC)[C@H](OC(C)=O)[C@]5(CC)C=CCN6CC[C@]43[C@@H]65)C2)C1 [vinblastine, reference compound]
- antineoplastic activity ([1]; vinblastine between 0.125 and 0.5 mg/kg/day, sub-cutaneous administration, until the 40th day): dose-dependent
- tolerance of the dose ([2]; mouse, in vivo): not tolerated

Molecule: dihydrated harmalacidine hydrochloride
- IC50 [5]: 34.4 to 134 µM
